In brackets after ≈: the same amount, converted by molar mass. Read-outs that look alike come from different tables or passages of the source.

The subject of data set [1] is Influenza A/Singapore/1/57. In kind it is in vivo. Conditions: A/Singapore/1/57, lungs 1 day post infection; for Effectiveness / Mean Virus Titre (logTCID50/ml): mice. On the set-up: Effectiveness: unit: %.
Data set [2] in a line: Long duration of action: level of compound in lung tissue after intra-tracheal dosing. Conditions: 0.4 mg/kg intra-tracheal, LC-MS/MS, in parallel with Zanamivir. In kind it is in vivo, Rodents. On the procedure: Rodents are anaesthetised and dosed with compound of interest by the intra-tracheal route at a dose volume of 0.8 ml/kg. The rodent is then held in the vertical position until full recovery is achieved. At different time points, for example, 2, 8, 24 and 48 hours post-dose, levels of compound in the lung tissue are assessed by analytical methods. Any analytical method suitable for detection of this type of compound may-be used. The time at which levels of compound fall below the sensitivity of the analytical techniques identified will determine the residency time of the compound in lung tissue.
The multimeric Compounds No 3, 4 and 20 of the invention were tested in parallel with Zanamivir [Compound (A)] using a dose of 0.4 mg/kg for each compound and assessing the level of compound in the lung tissue after 48 and 168 hours, using LC-MS/MS.

Data set [3] has as its system Influenza B/Victoria/1/87. The data set is described as follows: Influenza plaque assay in MDCK cell monolayers. Conditions: Influenza B virus, 96 h, read-out: EC50 on Influenza B/Victoria/1/87.
Data set [4] relates to Influenza A/Victoria/3/75. On the set-up: species or system mice. Conditions: mouse, in vivo.
Data set [5] concerns Influenza A/Victoria/3/75. The data set is described as follows: Influenza plaque assay in MDCK cell monolayers. Conditions: Influenza A virus, 96 h, read-out: EC50 on Influenza A/Victoria/3/75.
Another data set relates to B/Harbin/7/95. As to the kind of experiment: Inhibition of cytopathic effect (CPE) of influenza virus replication in MDCK cells. Conditions: for EC50 / IC50: Influenza B virus, MDCK; for EC50: read-out: EC50 on Influenza B/Harbin/7/95.
The test system of a further data set is A/Sydney/5/97. The data set is described as above. Conditions: for EC50 / IC50: Influenza A virus, MDCK; for EC50: read-out: EC50 on Influenza A/Sydney/5/97.
The next data set concerns A/Victoria/3/75. The description is as above.
Data set [6] has as its system Influenza A/Victoria/3/75. On the set-up: species or system mice. Conditions: mouse, in vivo. This is another data set of the same source.
The subject of the next data set is Influenza A/WSN/33. The data set is described as follows: Influenza plaque assay in MDCK cell monolayers. Conditions: Influenza A virus, 96 h, read-out: EC50 on Influenza A/WSN/33.
Setting [7] is: CPE results, same protocol as b341, MDCK cells.

`CC(=O)N[C@H]1[C@H]([C@H](OC(=O)NCCCCCCNC(=O)CN(CCN(CC(=O)NCCCCCCNC(=O)O[C@H](C(O)CO)[C@@H]2OC(C(=O)O)=C[C@H](NC(=N)N)[C@H]2NC(C)=O)CC(=O)NCCCCCCNC(=O)O[C@H](C(O)CO)[C@@H]2OC(C(=O)O)=C[C@H](NC(=N)N)[C@H]2NC(C)=O)CC(=O)NCCCCCCNC(=O)O[C@H](C(O)CO)[C@@H]2OC(C(=O)O)=C[C@H](NC(=N)N)[C@H]2NC(C)=O)C(O)CO)OC(C(=O)O)=C[C@@H]1NC(=N)N` (some centres unmarked) [Compound 3]: the “Number of virus free mice” value in data set [1] (0.01 mg/kg) is 0; in data set [1] (0.1 mg/kg) it was 0; in [1] (1 mg/kg), 1; in [4], 4. For the same compound, the results for the Effectiveness in [1] (0.01 mg/kg), in [1] (0.1 mg/kg) and in data set [1] (1 mg/kg) were 68.38, 95.53 and 99.47, respectively. The “Mean Virus Titre (logTCID50/ml)” value is on record as 5.55 logTCID50/ml in [1] (0.01 mg/kg), 4.70 logTCID50/ml in data set [1] (0.1 mg/kg), 3.78 logTCID50/ml in data set [1] (1 mg/kg) and 4.0 logTCID50/ml in [4]. Also, the “level of compound in the lung tissue after 48 and 168 hours” value in data set [2] is recorded as “retained in the lung at much higher concentrations than the monomer Zanamivir (A)”. Also, the EC50 in data set [3] stood at 0.3 ng/mL (≈ 0.142 nM); in data set [5], 0.1 ng/mL (≈ 0.0472 nM). In data set [4], the “% Effectiveness” value came out at 59%.
`CC(=O)N[C@H]1[C@H]([C@H](OC(=O)NCCCCCCNC(=O)CN(CCN(CC(=O)NCCCCCCNC(=O)O[C@@H]([C@@H]2OC(C(=O)O)=C[C@H](NC(=N)N)[C@H]2NC(C)=O)[C@H](O)CO)CC(=O)NCCCCCCNC(=O)O[C@@H]([C@@H]2OC(C(=O)O)=C[C@H](NC(=N)N)[C@H]2NC(C)=O)[C@H](O)CO)CC(=O)O)[C@H](O)CO)OC(C(=O)O)=C[C@@H]1NC(=N)N.O=C(O)C(F)(F)F` [Compound 14, (19R,20R)-19-((2R,3R,4S)-3-(acetylamino)-4-{[amino (imino)methyl]amino}-6-carboxy-3,4-dihydro-2H-pyran-2-yl)-3,6-bis[2-({6-[({[(1R,2R)-1-((2R,3R,4S)-3-(acetylamino)-4-{[amino(imino)methyl]amino}-6-carboxy-3,4-dihydro-2H-pyran-2-yl)-2,3-dihydroxypropyl]oxy}carbonyl)amino]hexyl}amino)-2-oxoethyl]-20,21-dihydroxy-8,17-dioxo-18-oxa-3,6,9,16-tetraazahenicosan-1-oic acid tris(trifluoroacetate)]: in [3], the EC50 turned out to be 6.3 ng/mL.
As for `CC(=O)N[C@H]1[C@H]([C@H](OC(=O)NCCCCCCNC(=O)COc2c3cc(C(C)(C)C)cc2Cc2cc(C(C)(C)C)cc(c2OCC(=O)NCCCCCCNC(=O)O[C@@H]([C@@H]2OC(C(=O)O)=C[C@H](NC(=N)N)[C@H]2NC(C)=O)[C@H](O)CO)Cc2cc(C(C)(C)C)cc(c2OCC(=O)NCCCCCCNC(=O)O[C@@H]([C@@H]2OC(C(=O)O)=C[C@H](NC(=N)N)[C@H]2NC(C)=O)[C@H](O)CO)Cc2cc(C(C)(C)C)cc(c2OCC(=O)NCCCCCCNC(=O)O[C@@H]([C@@H]2OC(C(=O)O)=C[C@H](NC(=N)N)[C@H]2NC(C)=O)[C@H](O)CO)C3)[C@H](O)CO)OC(C(=O)O)=C[C@@H]1NC(=N)N` [Compound 23], the “EC50 on Influenza B/Harbin/7/95” value with B/Harbin/7/95 (setting [7]) is 9.263. In data set [4], the “% Effectiveness” value is on record as 78.2%, the “Mean Virus Titre (logTCID50/ml)” value turned out to be 4.7 logTCID50/ml and the “Number of virus free mice” value is 0. The “EC50 on Influenza A/Sydney/5/97” value in the data set with A/Sydney/5/97 (setting [7]) came out at 27.714.
With `O=Cc1cc(C=O)cc(C=O)c1` [Compound 29], the figures for the EC50 in the data set with B/Harbin/7/95 and in the data set with A/Sydney/5/97 were 0.882 ng/mL (≈ 5.44 nM) and 0.089 ng/mL (≈ 0.549 nM), respectively.
Turning to `CC(=O)N[C@H]1[C@H]([C@H](OC(=O)NCCCCCCN)[C@H](O)CO)OC(C(=O)O)=C[C@@H]1NC(=N)N` [Compound (2) TFA2, 5-acetamido-7-(6-aminohexylcarbamoyloxy)-4-guanidino-2,3,4,5-tetradeoxy-D-glycero-D-galacto-non-2-enopyranosonic acid], the IC50 in the data set with B/Harbin/7/95 (read-out: IC50 nM) is 259 nM; with B/Harbin/7/95 (read-out: IC50 ng/ml) it was 182 ng/mL; with A/Victoria/3/75 (read-out: IC50 nM), 52.7 nM; with A/Victoria/3/75 (read-out: IC50 ng/ml) it was 37 ng/mL; with A/Sydney/5/97 (read-out: IC50 nM), 588 nM; in the data set on A/Sydney/5/97 (read-out: IC50 ng/ml) it was 413 ng/mL.
For `CC(=O)N[C@H]1[C@H]([C@H](O)[C@H](O)CO)OC(C(=O)O)=C[C@@H]1NC(=N)N` [Zanamivir, 4-guanidino-2-deoxy-2,3-dehydro-N-acetylneuraminic acid, reference compound], the “Number of virus free mice” value is reported as 0 in data set [1] (0.2 mg/kg); 0 in data set [1] (1 mg/kg); 1 in [1] (5 mg/kg); 0 in data set [6]; 0 in data set [4]. Besides, the Effectiveness is reported as 33.17 in data set [1] (0.2 mg/kg), 74.88 in data set [1] (1 mg/kg), 93.69 in data set [1] (5 mg/kg) and 81.76 in [6]. In addition, the “Mean Virus Titre (logTCID50/ml)” value was 5.60 logTCID50/ml in data set [1] (0.2 mg/kg), 5.18 logTCID50/ml in [1] (1 mg/kg) and 4.58 logTCID50/ml in [1] (5 mg/kg). For the same compound, the EC50 in the data set on B/Harbin/7/95 is 14.2 ng/mL (≈ 42.7 nM); in data set [3], 16 ng/mL (≈ 48.1 nM); in the data set with Influenza A/WSN/33, 22.7 ng/mL (≈ 68.3 nM); in data set [5] it was 3.5 ng/mL (≈ 10.5 nM); in the data set on A/Sydney/5/97 it was 32.7 ng/mL (≈ 98.3 nM). Further, the IC50 with B/Harbin/7/95 (read-out: IC50 nM) is 31.2 nM; in the data set with B/Harbin/7/95 (read-out: IC50 ng/ml) it was 10.4 ng/mL; in the data set on A/Victoria/3/75 (read-out: IC50 nM) it was 73.9 nM; in the data set on A/Victoria/3/75 (read-out: IC50 ng/ml) it was 24.6 ng/mL; in the data set on A/Sydney/5/97 (read-out: IC50 nM) it was 77.7 nM; in the data set with A/Sydney/5/97 (read-out: IC50 ng/ml), 25.8 ng/mL. The “% Effectiveness” value in data set [4] is −43.4%.

For the origin of these results see patent US7205333B2 (priority 2000, dated 2007).
